The target in this assay is T1, wild-type LRRK2 (Homo sapiens, UniProt Q5S007).
T1 construct: DNA tag for qPCR detection (not a peptide; the protein part that carries it is not described); made in house; host or cells: HEK 293 cells (the same paragraph also describes T7 phage grown in E. coli BL21)
The assay can be described thus: Inhibitory activity against LRRK2: competition binding to ligand-affinity beads, DNA-tagged kinase quantitated by qPCR. The conditions noted are these: % of ctrl; for remaining binding at 0.01 µM: 10 nM compound, read-out: LRRK2(WT) Remaining kinase activity(%) at 10 nM; for remaining binding at 0.05 µM: 50 nM compound, read-out: LRRK2(WT) Remaining kinase activity(%) at 50 nM. Here is the method:
Representative compounds synthesized in Example 1 were assayed for inhibitory activity against wild-type LRRK2 and mutant LRRK2 (G2019S), and the results are summarized in Tables 2 and 3. In brief, a T7 phase strain carrying the wild-type kinase consisting of amino acid residues from H970 to E2527 of human-derived LRRK2 (Accession no. NP_940980.3) or a T7 phase strain carrying the G2019S mutation kinase was infected into E. coli strain BL21 which was then grown until log phase. After infection with T7 phases (multiplicity of infection=0.4), the cells were cultured at 32° C. for 90-150 minutes while shaking. Then, E. coli lysates were centrifuged (6,000×g) and the supernatant was filtered through a 0.2-μm filter. The kinases were produced in HEK 293 cells. In this regard, DNA was tagged to obtain DNA-tagged kinases for qPCR detection. For use in analyzing the kinases, affinity resins were prepared by treating streptavidin-coated magnetic beads with biotinylated small molecule ligands at room temperature for 30 minutes. Then, the liganded beads were blocked with an excess of biotin and washed with a blocking buffer (SeaBlock (Pierce), 1% BSA, 0.05% Tween 20, 1 mM DTT) to remove unbound ligands and thus to reduce the binding of non-specific phages. […] After one hour of incubation, the affinity beads were washed with a wash buffer (1×PBS, 0.05% Tween 20), resuspended in an elution buffer (1×PBS, 0.05% Tween 20, 0.5 μM non-biotinylated affinity ligand), and incubated at room temperature for 30 minutes while shaking. Afterwards, concentrations of wild-type LRRK2 and mutant LRRK2 (G2019S) in the eluted samples were quantitated by qPCR. Activity values are expressed as percentages relative to the control (% of ctrl). The compounds used in the activity assay were prepared into 40× stocks in 100% DMSO. The stocks were directly diluted during analysis procedures.
Table 2 includes inhibitory activities of the representative compounds of the present disclosure at 100 nM against wild-type LRRK2 and mutant LRRK2 (G2019S) while Table 3 includes inhibitory activities of the representative compounds at 10 nM and 50 nM against wild-type LRRK2. (+++ less than 10%; ++ less than 30%; + less than 50%; −50% or higher)
(Quantitative PCR measures a nucleic acid by following its amplification.)

The structures appear in SMILES notation.

T1 sequence (Q5S007 970-2527): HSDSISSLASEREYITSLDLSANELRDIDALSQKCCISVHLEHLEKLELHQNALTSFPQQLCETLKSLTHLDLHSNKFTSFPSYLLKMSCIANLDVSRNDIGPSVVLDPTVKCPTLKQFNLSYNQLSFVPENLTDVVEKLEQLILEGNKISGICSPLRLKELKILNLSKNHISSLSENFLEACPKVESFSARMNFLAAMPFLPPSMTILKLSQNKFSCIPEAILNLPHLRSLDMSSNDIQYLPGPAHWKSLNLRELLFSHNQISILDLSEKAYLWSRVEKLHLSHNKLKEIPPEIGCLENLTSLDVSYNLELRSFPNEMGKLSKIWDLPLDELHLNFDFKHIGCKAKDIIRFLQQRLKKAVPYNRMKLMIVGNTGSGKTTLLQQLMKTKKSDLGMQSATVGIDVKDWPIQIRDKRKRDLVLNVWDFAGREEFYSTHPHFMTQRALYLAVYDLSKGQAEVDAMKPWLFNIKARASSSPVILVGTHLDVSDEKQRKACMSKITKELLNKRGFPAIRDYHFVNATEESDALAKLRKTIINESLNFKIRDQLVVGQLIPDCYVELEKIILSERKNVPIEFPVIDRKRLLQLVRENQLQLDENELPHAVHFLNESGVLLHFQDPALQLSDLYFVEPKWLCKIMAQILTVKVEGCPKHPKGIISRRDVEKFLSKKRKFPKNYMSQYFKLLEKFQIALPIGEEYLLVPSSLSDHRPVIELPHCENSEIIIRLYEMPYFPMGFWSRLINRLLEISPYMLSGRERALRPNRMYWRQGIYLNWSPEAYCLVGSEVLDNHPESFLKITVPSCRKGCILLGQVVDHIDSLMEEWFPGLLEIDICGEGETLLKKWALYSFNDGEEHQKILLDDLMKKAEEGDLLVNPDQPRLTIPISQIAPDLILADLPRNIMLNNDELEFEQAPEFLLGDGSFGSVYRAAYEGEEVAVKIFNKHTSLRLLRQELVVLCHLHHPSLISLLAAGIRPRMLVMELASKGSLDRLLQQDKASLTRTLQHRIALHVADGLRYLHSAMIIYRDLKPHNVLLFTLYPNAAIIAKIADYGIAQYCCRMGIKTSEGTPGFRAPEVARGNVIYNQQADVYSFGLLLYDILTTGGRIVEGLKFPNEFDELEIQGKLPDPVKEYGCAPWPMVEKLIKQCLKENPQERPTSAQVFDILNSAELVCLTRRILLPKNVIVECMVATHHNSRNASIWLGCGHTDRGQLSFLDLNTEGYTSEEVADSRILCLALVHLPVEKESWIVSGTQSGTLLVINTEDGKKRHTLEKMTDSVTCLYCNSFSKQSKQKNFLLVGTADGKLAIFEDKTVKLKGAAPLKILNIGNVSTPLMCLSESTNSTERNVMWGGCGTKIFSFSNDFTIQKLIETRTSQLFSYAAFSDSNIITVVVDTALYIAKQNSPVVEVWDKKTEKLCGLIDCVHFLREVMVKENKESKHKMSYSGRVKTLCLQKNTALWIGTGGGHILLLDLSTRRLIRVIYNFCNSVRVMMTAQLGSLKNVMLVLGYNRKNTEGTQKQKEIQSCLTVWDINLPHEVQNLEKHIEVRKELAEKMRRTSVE

On to `COc1cc(C(=O)NC2CCN(C)CC2)ccc1Nc1ncc(Cl)c(-c2cnn(C(C)C)c2)n1` [Compound 60, 4-((5-chloro-4-(1-isopropyl-1H-pyrazol-4-yl)pyrimidin-2-yl)amino)-3-methoxy-N-(1-methylpiperidin-4-yl)benzamide], for which the remaining binding at 0.01 µM is < 50% and the remaining binding at 0.05 µM is < 10%.
The corresponding values for `COc1cc(C(=O)N2CCN(C)CC2)ccc1Nc1ncc(Cl)c(-c2cnn(C)c2)n1` [Compound 61, (4-((5-chloro-4-(1-methyl-1H-pyrazol-4-yl)pyrimidin-2-yl)amino)-3-methoxyphenyl)(4-methylpiperazin-1-yl)methanone] are < 50% and < 30%.
For the molecule `COc1cc(C(=O)N2CCN(C)CC2)ccc1Nc1ncc(Cl)c(-c2cnn(C(C)C)c2)n1` [Compound 62, (4-((5-chloro-4-(1-isopropyl-1H-pyrazol-4-yl)pyrimidin-2-yl)amino)-3-methoxyphenyl)(4-methylpiperazin-1-yl)methanone], the remaining binding at 0.01 µM was < 30% and the remaining binding at 0.05 µM was < 10%.
In the same order, the values of `COc1cc(C(=O)N2CCN(C(C)C)CC2)ccc1Nc1ncc(Cl)c(-c2cnn(C(C)C)c2)n1` [Compound 64, (4-((5-chloro-4-(1-isopropyl-1H-pyrazol-4-yl)pyrimidin-2-yl)amino)-3-methoxyphenyl)(4-isopropylpiperazin-1-yl)methanone] are < 30% and < 10%.
The corresponding values for `COc1cc(C(=O)N2CCC(C(C)(C)O)CC2)ccc1Nc1ncc(Cl)c(-c2cnn(C(C)C)c2)n1` [Compound 70, (4-((5-chloro-4-(1-isopropyl-1H-pyrazol-4-yl)pyrimidin-2-yl)amino)-3-methoxyphenyl)(4-(2-hydroxypropan-2-yl)piperidin-1-yl)methanone] are < 50% and < 30%.
In the same order, the values of `COc1cc(C(=O)N2CCC3(CC2)COC3)ccc1Nc1ncc(Cl)c(-c2cnn(C(C)C)c2)n1` [Compound 71, (4-((5-chloro-4-(1-isopropyl-1H-pyrazol-4-yl)pyrimidin-2-yl)amino)-3-methoxyphenyl)(2-oxa-7-azaspiro[3.5]nonan-7-yl)methanone] are < 50% and < 30%.
On to `COc1cc(C(=O)N2CC(N3CCOCC3)C2)ccc1Nc1ncc(Cl)c(-c2cnn(C(C)C)c2)n1` [Compound 73, (4-((5-chloro-4-(1-isopropyl-1H-pyrazol-4-yl)pyrimidin-2-yl)amino)-3-methoxyphenyl)(3-morpholinoazetidin-1-yl)methanone], for which the remaining binding at 0.01 µM is < 50% and the remaining binding at 0.05 µM was < 30%.
In the same order, the values of `COc1cc(C(=S)N2CCOCC2)ccc1Nc1ncc(Cl)c(-c2cnn(C(C)C)c2)n1` [Compound 74, (4-((5-chloro-4-(1-isopropyl-1H-pyrazol-4-yl)pyrimidin-2-yl)amino)-3-methoxyphenyl)(morpholino)methanethione] are < 50% and < 10%.
In the same order, the values of `COc1cc(C(=O)N2CCC(OC)CC2)ccc1Nc1ncc(Cl)c(-c2cnn(C(C)C)c2)n1` [Compound 76, (4-((5-chloro-4-(1-isopropyl-1H-pyrazol-4-yl)pyrimidin-2-yl)amino)-3-methoxyphenyl)(4-methoxypiperidin-1-yl)methanone] are < 50% and < 30%.
In the same order, the values of `COc1cc(C(=O)N2CCC3(CCOCC3)CC2)ccc1Nc1ncc(Cl)c(-c2cnn(C(C)C)c2)n1` [Compound 77, (4-((5-chloro-4-(1-isopropyl-1H-pyrazol-4-yl)pyrimidin-2-yl)amino)-3-methoxyphenyl)(3-oxa-9-azaspiro[5.5]undecan-9-yl)methanone] are < 50% and < 30%.
Regarding `COc1cc(C(=O)N2CCN(C(C)=O)CC2)ccc1Nc1ncc(Cl)c(-c2cnn(C(C)C)c2)n1` [Compound 78, 1-(4-(4-((5-chloro-4-(1-isopropyl-1H-pyrazol-4-yl)pyrimidin-2-yl)amino)-3-methoxybenzoyl)piperazin-1-yl)ethan-1-one], the remaining binding at 0.01 µM was < 50% and the remaining binding at 0.05 µM was < 10%.
The corresponding values for `COc1cc(C(=O)N2CCC(S(C)(=O)=O)CC2)ccc1Nc1ncc(Cl)c(-c2cnn(C(C)C)c2)n1` [Compound 79, (4-((5-chloro-4-(1-isopropyl-1H-pyrazol-4-yl)pyrimidin-2-yl)amino)-3-methoxyphenyl)(4-(methylsulfonyl)piperidin-1-yl)methanone] are < 50% and < 10%.
In the same order, the values of `COc1cc(C(=O)NC2CCOCC2)ccc1Nc1ncc(Cl)c(-c2cnn(C(C)C)c2)n1` [Compound 80, 4-((5-chloro-4-(1-isopropyl-1H-pyrazol-4-yl)pyrimidin-2-yl)amino)-3-methoxy-N-(tetrahydro-2H-pyran-4-yl)benzamide] are < 50% and < 30%.
The corresponding values for `COc1cc(C(=O)NC2CC2)ccc1Nc1ncc(Cl)c(-c2cnn(C(C)C)c2)n1` [Compound 82, 4-((5-chloro-4-(1-isopropyl-1H-pyrazol-4-yl)pyrimidin-2-yl)amino)-N-cyclopropyl-3-methoxybenzamide] are < 50% and < 30%.
`COc1cc(C(=O)N2CCS(=O)(=O)CC2)ccc1Nc1ncc(Cl)c(-c2cnn(C(C)C)c2)n1` [Compound 84, (4-((5-chloro-4-(1-isopropyl-1H-pyrazol-4-yl)pyrimidin-2-yl)amino)-3-methoxyphenyl)(1,1-dioxidothiomorpholino)methanone]: the remaining binding at 0.01 µM was < 50% and the remaining binding at 0.05 µM was < 30%.
In the same order, the values of `COc1cc(C(=O)N2CCN(C)CC2)ccc1Nc1ncc(Cl)c(-c2cnn(C(C)(C)C)c2)n1` [Compound 85, (4-((4-(1-(tert-butyl)-1H-pyrazol-4-yl)-5-chloropyrimidin-2-yl)amino)-3-methoxyphenyl)(4-methylpiperazin-1-yl)methanone] are < 50% and < 30%.
In the same order, the values of `COc1cc(C(=O)N2CCN3CCCC3C2)ccc1Nc1ncc(Cl)c(-c2cnn(C(C)C)c2)n1` (stereo not drawn) [Compound 87, (4-((5-chloro-4-(1-isopropyl-1H-pyrazol-4-yl)pyrimidin-2-yl)amino)-3-methoxyphenyl)(hexahydropyrrolo[1,2-a]pyrazin-2(1H)-yl)methanone] are < 50% and < 30%.
The corresponding values for `COc1cc(C(=O)N2CCN(C(C)C)CC2)ccc1Nc1ncc(Cl)c(-c2cnn(C(C)(C)C)c2)n1` [Compound 88, (4-((4-(1-(tert-butyl)-1H-pyrazol-4-yl)-5-chloropyrimidin-2-yl)amino)-3-methoxyphenyl)(4-isopropylpiperazin-1-yl)methanone] are < 50% and < 10%.
Consider `COc1cc(C(=O)N2C[C@H]3CC[C@@H](C2)O3)ccc1Nc1ncc(Cl)c(-c2cnn(C(C)C)c2)n1` [Compound 89, ((1R,5S)-8-oxa-3-azabicyclo[3.2.1]octan-3-yl)(4-((5-chloro-4-(1-isopropyl-1H-pyrazol-4-yl)pyrimidin-2-yl)amino)-3-methoxyphenyl)methanone], for which the remaining binding at 0.01 µM was ≥ 50% and the remaining binding at 0.05 µM was < 30%.
In the same order, the values of `COc1cc(C(=O)N2CC3(COC3)C2)ccc1Nc1ncc(Cl)c(-c2cnn(C(C)C)c2)n1` [Compound 90, (4-((5-chloro-4-(1-isopropyl-1H-pyrazol-4-yl)pyrimidin-2-yl)amino)-3-methoxyphenyl)(2-oxa-6-azaspiro[3.3]heptan-6-yl)methanone] are ≥ 50% and < 30%.
In the same order, the values of `COc1cc(C(=O)NC2CCC(O)CC2)ccc1Nc1ncc(Cl)c(-c2cnn(C(C)C)c2)n1` (stereo not drawn) [Compound 91, 4-((5-chloro-4-(1-isopropyl-1H-pyrazol-4-yl)pyrimidin-2-yl)amino)-N-((1r,4r)-4-hydroxycyclohexyl)-3-methoxybenzamide] are ≥ 50% and < 30%.

For the origin of these results see patent US20240254103A9, “NOVEL PYRIMIDINE DERIVATIVE, AND COMPOSITION FOR PREVENTING OR TREATING NEURODEGENERATIVE DISEASES AND CANCER, COMPRISING SAME” (WHAN IN PHARMACEUTICAL CO., LTD., priority 2020, published 2024).
